According to US20230151434A1, “REAWAKENING OF DORMANT TUMOR CELLS BY MODIFIED LIPIDS DERIVED FROM STRESS ACTIVATED NEUTROPHILS” (The Wistar Institute of Anatomy and Biology, priority 2020, published 2023):
Read-outs that look alike come from different tables or passages of the source.

Experiments:
[1] = test system: PMN; experiment: PMN viability (proportion of live PMN); format: cell-based, mouse
Protocol: FIG. 2A-FIG. 2K show neutrophil-mediated reactivation of dormant cells is regulated by stress-induced S100A8/A9. (FIG. 2A) Fold increase in the number of KPr^p53A cells cultured in the presence of PMN and S100A8/A9 or indicated cytokines relative to KPr^p53A cells cultured with PMN. Three independent experiments with 16 replicates were performed. Mean±SEM of one experiment is shown. (FIG. 2B) Fold increase in the number of KPr^p53A cells cultured in the presence of PMN and LPS relative to KPr^p53A cells cultured with PMN or alone. Means±SEM of three independent experiments with 16 replicates each are shown. (FIG. 2C) Fold increase in the number of KPr^p53A cells cultured in the presence of S100A8/A9 alone, PMN and S100A8/A9, or PMN-MDSC relative to KPr^p53A cultured alone. Means±SEM of 10 independent experiments with 16 replicates each are shown. (FIG. 2D) S100A8/A9 protein produced by PMN after treatment with indicated hormones or LPS was measured by ELISA. PMN-MDSC were isolated from spleens of Lewis lung carcinoma tumor-bearing mice. Means±SEM and results of each independent experiment with three replicates are shown. (FIG. 2E) S100A8/A9 protein secreted in vitro from PMN and PMN treated with NE with or without ICI-118; […] as measured by ELISA. Means±SEM and results of independent experiment with three replicates are shown. (FIG. 2F) Flow cytometry staining of ADRB2 receptor (dark gray) on PMN isolated from mouse spleen. Isotype control, light gray. Representative histogram of three experiments is shown. (FIG. 2G) Fold increase in the number of KPr^p53A cells cultured with PMN alone, NE alone, PMN and NE together, and PMN and NE plus ICI-118; 553 relative to KPr^p53A cells cultured alone (Ctrl). Ten independent experiments with 16 replicates for each experiment were performed. Means±SEM in a representative experiment are shown. (FIG. 2H) Number of KPr^p53A cells cultured in the presence of PMN from S100a9KO mice alone or together with NE relative to KPr^p53A cells cultured alone (ctrl). Means±SEM are reported for 16 replicates. (FIG. 2I) Percentage of live PMN after overnight incubation with NE, S100A8/A9, or LPS. Each dot represents the average of three experimental replicates of one single experiment. Means±SEM are shown for each group. (FIG. 2J) Fold increase in number of LL2^CisA cells cultured with PMN alone or together with S100A8/A9 or NE relative to LL2^CisA cultured alone (Ctrl). Means±SEM of three independent experiments with 16 replicates each are shown. […] In all panels, P values were calculated using ANOVA test with correction for multiple comparisons.
FIG. 11A-FIG. 11G show the mechanism of dormant tumor cell reactivation. […] P values were calculated by ANOVA test with correction for multiple comparisons. […]

[2] = test system: A549^cisA and OVCAR3^cisA cells; experiment: In vitro co-culture of chemotherapy-arrested human tumor cells with human PMN; format: cell-based; details: A549^cisA, OVCAR3^cisA
Protocol: (§1) The KPr cell line (16) was maintained in RPMI 1640 medium (Corning) and 10% FBS (Gibco). Treatment of KPr cells with 250 nM 4-hydroxytamoxifen (4-OHT, Sigma-Aldrich) induced p53 expression. p53-induced cells (KPr^p53) were stained with CellTrace dye for 20 min at 37° C. according to the manufacturer's instructions (Life Technologies) and seeded at 8500 cells/cm^2 in culture in a T175 tissue culture-treated flask (Gibco). After 7 days, cells were detached and sorted based on the CellTrace dye intensity as proliferating (KPr^p53P, with lower CellTrace) and arrested cells (KPr^p53A, with higher-intensity CellTrace; see FIG. 1A for representative image). LL2 cells were seeded at 1000 cells/cm2 and treated for 3 days with 2.5 μM cisplatin (Selleckchem). After that, cells were stained with CellTrace and sorted as described above. OVCAR3 cell senescence was induced by treating 5×10^4 cells/cm2 with 0.5 μM cisplatin for 72 hours. After that time, cells were stained with CellTrace and sorted. A549 senescence was induced by 72-hour treatment with 4 μM cisplatin and cells were sorted after staining with CellTrace. Time points for sorting were chosen as the best to observe separation between arrested and proliferating cells. Cells were sorted on Astrios (Beckman Coulter) or Melody (Becton Dickinson) fluorescence-activated cell sorters.
(§2) Arrested tumor cells were plated at 100 cells/cm^2 in a 48-well tissue culture-treated plate (Costar) for coculture experiments. After 24 hours, PMN-MDSC or PMN were added at indicated ratios. Cocultures were maintained for 48 hours in RPMI 1640+10% FBS in the presence of mouse recombinant GM-CSF (10 ng/ml; Rocky Hill) to ensure neutrophil viability. All control conditions were in the presence of media with GM-CSF. All indicated supplements (NE, S100A8/A9, BGJ398, ICI 118-551, IL-2, MPO inhibitor, LPS, lipids, PMA, and thapsigargin 1 μM) were added to culture at the same time as PMN and maintained for 48 hours. After that, media were removed and replaced by fresh media without GM-CSF. After 1 week, GFP^+ cells in wells were counted via an inverted microscope. When lipid extracts were used, lipids were added to dormant cells in culture at 1 to 0.05 or 0.01 nmol as indicated in each experiment.

[3] = test system: PMN; experiment: S100A8/A9 release by PMN measured by ELISA; format: cell-based, mouse
Protocol: PMN or PMN-MDSC were isolated from spleen of tumor-free mice or LLC tumor-bearing mice, respectively. A total of 5×10^5 LLC cells were injected into the right flank of mice, and spleens were harvested when tumors reached 200 mm^2. Spleens were mechanically dissociated. Red blood cells were lysed with ACK buffer cells. Splenocytes were stained with mouse biotin-conjugated Ly6G antibody (Miltenyi Biotec) followed by biotin microbeads. Ly6G+ cells were purified by magnetic separation with MACS column for magnetic cell isolation, according to the manufacturer's instructions (Miltenyi Biotec).
One hundred microliters of mouse peripheral blood was collected from facial vein. NE was measured by a mouse NE ELISA Kit (Novus Biologicals). S100A8/A9 was measured by Mouse S100A8/S100A9 Heterodimer DuoSet ELISA (R&D Systems). S100A8/A9 concentrations in human serum samples were determined by using a double-sandwich ELISA system as previously described (64), which is different from commercial ELISA kits. Human NE was measured using an ELISA kit (Abnova).

[4] = test system: LL2^cisA and AT-3^DoxA cells; experiment: In vitro co-culture of chemotherapy-arrested mouse tumor cells with PMN; format: cell-based; details: LL2^cisA, AT-3^DoxA
Protocol: as §1, §2

[5] = test system: KPr^p53A cells; experiment: In vitro co-culture of dormant tumor cells with PMN (count of GFP+ cells); format: cell-based, mouse; details: for reactivation/proliferation of KPr^p53A cells cultured with PMN plus supplement: supplement added with PMN, LPS 0.5 to 2 μg/ml
Protocol: as §1, §2

[6] = test system: LL2, A549 and OVCAR3 cells; experiment: Cisplatin-induced tumor cell dormancy; format: cell-based, mouse; human; details: LL2 2.5 μM, A549 4 μM, OVCAR3 0.5 μM, 72 hours
Protocol: as §1, with “sorters. […]” for “sorters.”

[7] = PMN treated with stress hormones or LPS

NC[C@H](O)c1ccc(O)c(O)c1 [NE, norepinephrine]
PMN viability [1]: did not affect PMN viability | reactivation of arrested human tumor cells cultured with human PMN plus supplement [2]: reactivated dormant mouse and human tumor cells | S100A8/A9 release by PMN [3, 7]: caused rapid release of S100A8/A9 proteins | proliferation of arrested mouse tumor cells cultured with mouse PMN plus supplement [4]: reactivated dormant mouse and human tumor cells | reactivation/proliferation of KPr^p53A cells, supplement alone ([5]; absence of PMN): did not affect the proliferation of KPr^p53A cells | reactivation/proliferation of KPr^p53A cells cultured with PMN plus supplement [5]: caused proliferation of tumor cells

CCCCCCCCCCCCCC(=O)O[C@@H]1[C@@H](C)[C@@]2(O)[C@@H](C=C(CO)C[C@]3(O)C(=O)C(C)=C[C@@H]23)[C@@H]2C(C)(C)[C@]12OC(C)=O [PMA, phorbol 12-myristate 13-acetate]
reactivation/proliferation of KPr^p53A cells cultured with PMN plus supplement [5]: did not induce their ability to reactivate dormant KPr^p53A cells

N.N.[Cl][Pt][Cl] [cisplatin]
induction of proliferation arrest / senescence-like phenotype in tumor cells [6]: caused a senescence-like phenotype in tumor cells in vitro | induction of proliferation arrest / senescence-like phenotype in tumor cells ([6]; listed as Cisplatin): generated proliferation-arrested cells

C[C@]12CCC(=O)C=C1CC[C@@H]1[C@@H]2[C@@H](O)C[C@@]2(C)[C@H]1CC[C@]2(O)C(=O)CO [cortisol]
S100A8/A9 release by PMN [3, 7]: caused rapid release of S100A8/A9 proteins

CNC[C@H](O)c1ccc(O)c(O)c1 [epinephrine]
S100A8/A9 release by PMN [3]: caused rapid release of S100A8/A9 proteins

NCCc1c[nH]c2ccc(O)cc12 [serotonin]
S100A8/A9 release by PMN [3, 7]: caused rapid release of S100A8/A9 proteins

C/C=C(/C)C(=O)O[C@H]1C(C)=C2[C@H]([C@@H]1OC(=O)CCCCCCC)[C@@](C)(OC(C)=O)C[C@H](OC(=O)CCC)[C@@]1(O)[C@H]2OC(=O)[C@@]1(C)O [thapsigargin]
reactivation/proliferation of KPr^p53A cells cultured with PMN plus supplement [5]: did not induce their ability to reactivate dormant KPr^p53A cells

IL-6: proinflammatory cytokine
reactivation/proliferation of KPr^p53A cells cultured with PMN plus supplement [5]: did not induce their ability to reactivate dormant KPr^p53A cells

Lipopolysaccharide [LPS]
PMN viability ([1]; overnight incubation): markedly reduced it | reactivation/proliferation of KPr^p53A cells cultured with PMN plus supplement [5]: did not affect the ability of PMN to reactivate KPr^p53A cells

PE (18:0p/20:4) [Untreated PE]
proliferation of KPr^p53A cells cultured with lipids ([5]; lipids added to dormant cells, no PMN): did not activate proliferation of KPr^p53A cells

TNF a
reactivation/proliferation of KPr^p53A cells cultured with PMN plus supplement [5]: did not induce their ability to reactivate dormant KPr^p53A cells

B1: human S100A8/A9: human recombinant S100A8/A9 (protein, UniProt P05109 1-93; P06702 1-114, looked up)
Protein S100-A8: MLTELEKALNSIIDVYHKYSLIKGNFHAVYRDDLKKLLETECPQYIRKKGADVWFKELDINTDGAVNFQEFLILVIKMGVAAHKKSHEESHKE
Protein S100-A9: MTCKMSQLERNIETIINTFHQYSVKLGHPDTLNQGEFKELVRKDLQNFLKKENKNEKVIEHIMEDLDTNADKQLSFEEFIMLMARLTWASHEKMHEGDEGPGHHHKPGLGEGTP
reactivation of arrested human tumor cells cultured with human PMN plus supplement [2]: reactivation of A549^cisA and OVCAR3^cisA cells

B2: IL-10: proinflammatory cytokine as printed (protein, UniProt P22301 19-178, looked up)
Interleukin-10: SPGQGTQSENSCTHFPGNLPNMLRDLRDAFSRVKTFFQMKDQLDNLLLKESLLEDFKGYLGCQALSEMIQFYLEEVMPQAENQDPDIKAHVNSLGENLKTLRLRLRRCHRFLPCENKSKAVEQVKNAFNKLQEKGIYKAMSEFDIFINYIEAYMTMKIRN
reactivation/proliferation of KPr^p53A cells cultured with PMN plus supplement [5]: did not induce their ability to reactivate dormant KPr^p53A cells
